TGI data for 13 molecules are collected here from PubChem BioAssay (NCI).

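Exposure lasted 48 hours, with cells grown in 96-well plates and compounds tested at five concentrations. TGI denotes the concentration required for complete inhibition of growth.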

Among the test systems are TK-10 renal; RPMI-8226 leukemia; M14 melanoma; MOLT-4 leukemia; IGROV1 ovarian; SF-539 CNS; HCC-2998 colon; UACC-257 melanoma; RXF 393 renal; SNB-19 CNS.
Assay in all cases: NCI tumour cell line growth inhibition, 48 h

On to `COC(=O)/C=C/[C@H]1[C@H](C)N1S(=O)(=O)c1ccc(C)cc1` (stereo not given in full), for which the TGI with TK-10 renal, in the experiment with RPMI-8226 leukemia, in the experiment with M14 melanoma, in the experiment on MOLT-4 leukemia, in the experiment on IGROV1 ovarian and with SF-539 CNS was greater than 100 µM each time. Moreover, the TGI in the experiment on HCC-2998 colon, in the experiment on UACC-257 melanoma, in the experiment on RXF 393 renal and in the experiment on SNB-19 CNS was greater than 100 µM in each case.

Take `FC(F)(F)c1ccc(N=NN2CCCC2)cc1`: the TGI in the experiment on TK-10 renal, in the experiment with RPMI-8226 leukemia, in the experiment on M14 melanoma, in the experiment with MOLT-4 leukemia, in the experiment with IGROV1 ovarian and in the experiment with SF-539 CNS was greater than 100 µM each time. Also, the TGI in the experiment with HCC-2998 colon, in the experiment with UACC-257 melanoma, with RXF 393 renal and in the experiment with SNB-19 CNS was greater than 100 µM throughout.

Take `O=C1CSC2(CC(/C=C/c3ccccc3[N+](=O)[O-])=NN2c2cccc(S(=O)(=O)O)c2)N1c1nc2ccccc2s1` (stereo not given): the TGI with TK-10 renal is 29.4 µM; in the experiment with RPMI-8226 leukemia, 43.5 µM; in the experiment with M14 melanoma, 60.7 µM; with MOLT-4 leukemia it was 52.4 µM; in the experiment on IGROV1 ovarian it was 36.1 µM; in the experiment with SF-539 CNS, greater than 75 µM. Also, the TGI in the experiment on HCC-2998 colon is greater than 75 µM; in the experiment on UACC-257 melanoma, greater than 75 µM; with RXF 393 renal, greater than 75 µM; in the experiment with SNB-19 CNS it was 35.1 µM.

For `CCN(CC)CCCNc1c2cc(OC)ccc2nc2cccc([N+](=O)[O-])c12`, the TGI in the experiment with TK-10 renal was found to be 0.569 µM; in the experiment with RPMI-8226 leukemia, 0.418 µM; in the experiment on M14 melanoma, 0.24 µM; with MOLT-4 leukemia, 0.554 µM; in the experiment on IGROV1 ovarian, 0.387 µM; with SF-539 CNS it was 0.304 µM. In addition, the TGI in the experiment on HCC-2998 colon came to 0.192 µM; with UACC-257 melanoma it was 0.416 µM; with RXF 393 renal it was 0.23 µM; with SNB-19 CNS it was 2.02 µM.

Regarding `c1ccc2c[n+](Cc3ccnc4ccccc34)ccc2c1`, the TGI in the experiment with TK-10 renal, with RPMI-8226 leukemia, in the experiment with M14 melanoma, with MOLT-4 leukemia, with IGROV1 ovarian and with SF-539 CNS was greater than 100 µM in each case. Besides, the TGI in the experiment on HCC-2998 colon, in the experiment with UACC-257 melanoma, in the experiment with RXF 393 renal and in the experiment on SNB-19 CNS was greater than 100 µM in each case.

Regarding `CCOC1=NC(C(F)(F)F)(C(F)(F)F)N=C(/N=C(/N)N(C)C(C(C)C)P(=O)(OC(C)C)OC(C)C)O1` (stereo not given), the TGI was greater than 100 µM in the experiment with TK-10 renal; greater than 100 µM with RPMI-8226 leukemia; greater than 100 µM in the experiment with M14 melanoma; 51.4 µM with MOLT-4 leukemia; greater than 100 µM with IGROV1 ovarian; greater than 100 µM with SF-539 CNS. Besides, the TGI with HCC-2998 colon, in the experiment on UACC-257 melanoma, with RXF 393 renal and in the experiment on SNB-19 CNS was greater than 100 µM throughout.

For `Cc1nc2ccccc2n1Cc1ccc(NC(=S)NC2CCCCC2)cc1`, the TGI with TK-10 renal is greater than 100 µM; in the experiment with RPMI-8226 leukemia it was greater than 66.4 µM; in the experiment on M14 melanoma, greater than 100 µM; with MOLT-4 leukemia, greater than 100 µM; with IGROV1 ovarian it was greater than 100 µM; in the experiment with SF-539 CNS, greater than 100 µM. Also, the TGI with HCC-2998 colon was greater than 100 µM; in the experiment with UACC-257 melanoma, greater than 95.1 µM; in the experiment on RXF 393 renal it was greater than 100 µM; in the experiment on SNB-19 CNS, greater than 100 µM.

Consider `COc1ccc(OC/C(N=Cc2cccnc2)=N/NC(=O)c2ccncc2)cc1`, for which the TGI in the experiment on TK-10 renal, in the experiment on RPMI-8226 leukemia, in the experiment on M14 melanoma, in the experiment with MOLT-4 leukemia, in the experiment with IGROV1 ovarian and in the experiment on SF-539 CNS was greater than 100 µM in each case. Further, the TGI with HCC-2998 colon, in the experiment on UACC-257 melanoma, in the experiment with RXF 393 renal and in the experiment with SNB-19 CNS was greater than 100 µM each time.

For `O=C1N(c2ccccc2)N=C2c3ccncc3C3=NN(c4ccccc4)C(=O)C123` (stereo not given), the TGI was greater than 100 µM in the experiment with TK-10 renal; greater than 100 µM in the experiment with RPMI-8226 leukemia; greater than 100 µM in the experiment on M14 melanoma; greater than 100 µM with MOLT-4 leukemia; greater than 100 µM in the experiment on IGROV1 ovarian; greater than 46.8 µM in the experiment on SF-539 CNS. Also, the TGI in the experiment on HCC-2998 colon was greater than 88 µM; in the experiment on UACC-257 melanoma, greater than 100 µM; with RXF 393 renal, greater than 100 µM; in the experiment on SNB-19 CNS it was greater than 100 µM.

For the molecule `O=c1[nH]nc(-c2ccccc2)c2[nH]c3c(c12)CCCc1ccccc1-3`, the TGI in the experiment with TK-10 renal was 86.4 µM; with RPMI-8226 leukemia it was 31.2 µM; in the experiment with M14 melanoma it was 36.9 µM; with MOLT-4 leukemia, 33.8 µM; with IGROV1 ovarian it was 25 µM; in the experiment on SF-539 CNS, 36.1 µM. The TGI came out at 28 µM in the experiment on HCC-2998 colon, 44.5 µM in the experiment on UACC-257 melanoma, 36 µM with RXF 393 renal and 26.8 µM in the experiment with SNB-19 CNS.

Regarding `Cc1cccc2c1CC1(Cc3c(C)cccc3C1=O)C2=O`, the TGI in the experiment with TK-10 renal, in the experiment on RPMI-8226 leukemia, in the experiment on M14 melanoma, in the experiment on MOLT-4 leukemia, in the experiment on IGROV1 ovarian and with SF-539 CNS was greater than 100 µM in each case. Further, the TGI in the experiment with HCC-2998 colon, with UACC-257 melanoma, in the experiment on RXF 393 renal and in the experiment with SNB-19 CNS was greater than 100 µM throughout.

For `CCN(CC)C(=O)CCNC(C)Cc1c[nH]c2ccccc12` (stereo not given), the TGI in the experiment with TK-10 renal, with RPMI-8226 leukemia, with M14 melanoma, in the experiment on MOLT-4 leukemia, with IGROV1 ovarian and with SF-539 CNS was greater than 100 µM throughout. The TGI in the experiment with HCC-2998 colon, with UACC-257 melanoma, with RXF 393 renal and in the experiment with SNB-19 CNS was greater than 100 µM in each case.

Regarding `CCOC(=O)C1=CN(Cc2ccccc2)C2ON=C(c3ccc(Cl)cc3)C2C1` (stereo not given), the TGI with TK-10 renal was greater than 81.3 µM; with RPMI-8226 leukemia, greater than 100 µM; in the experiment on M14 melanoma, greater than 66.9 µM; in the experiment with MOLT-4 leukemia, greater than 100 µM; in the experiment with IGROV1 ovarian, greater than 50.5 µM; in the experiment on SF-539 CNS, greater than 68.2 µM. Moreover, the TGI was greater than 100 µM in the experiment with HCC-2998 colon, greater than 66.8 µM in the experiment with UACC-257 melanoma, greater than 67.6 µM in the experiment on RXF 393 renal and greater than 100 µM in the experiment on SNB-19 CNS.
